The first assay addresses T1, hCRTH2 receptor (Homo sapiens, UniProt Q9Y5Y4).
T1 construct: expressed in transfected cells; host or cells: HEK293
T1 sequence (Q9Y5Y4 1-395): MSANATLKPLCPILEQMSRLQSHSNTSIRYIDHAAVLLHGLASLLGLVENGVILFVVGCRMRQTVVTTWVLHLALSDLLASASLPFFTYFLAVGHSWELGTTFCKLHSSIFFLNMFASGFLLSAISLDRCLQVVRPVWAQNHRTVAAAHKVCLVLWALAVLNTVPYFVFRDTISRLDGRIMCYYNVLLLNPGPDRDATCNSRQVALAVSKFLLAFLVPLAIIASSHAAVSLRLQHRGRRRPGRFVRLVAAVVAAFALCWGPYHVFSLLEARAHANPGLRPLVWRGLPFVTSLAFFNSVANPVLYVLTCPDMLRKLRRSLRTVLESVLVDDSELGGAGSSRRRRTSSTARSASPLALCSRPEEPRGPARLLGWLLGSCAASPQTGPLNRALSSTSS
Nature of the assay: Radioligand displacement assay (3H-PGD2) on hCRTH2 receptor membranes. The assay is classed as binding. Particulars: antagonistic activity, 3H-PGD2 radioligand displacement, HEK293-hCRTH2 membranes.
Usually IC50 stands for the concentration that inhibits the measured activity by half. High values mean lower potency, low ones higher potency. In the case of `Cc1ccc(COC(=O)N2CCc3ccccc3C2c2cc(Cl)ccc2OCC(=O)O)cc1` (racemic) [Example 360], the IC50 turned out to be 18.8 nM.
The same measure, in the same setting: the value for `COc1ccc(COC(=O)N2CCc3ccccc3C2c2cc(Cl)ccc2OCC(=O)O)cc1` (racemic) [Example 361] was 22.8 nM; that for `O=C(O)COc1ccc(Cl)cc1C1c2ccccc2CCN1C(=O)OCc1ccc(F)cc1` (racemic) [Example 362] was 14.3 nM.
On the same count and under the same terms, the value for `O=C(O)COc1ccc(Cl)cc1C1c2ccccc2CCN1C(=O)OCc1ccc(C(F)(F)F)cc1` (racemic) [Example 363] was 34.1 nM; that for `O=C(O)COc1ccc(Cl)cc1C1c2ccccc2CCN1C(=O)OCc1cccc(Cl)c1` (racemic) [Example 364] was 16.5 nM.
As for `O=C(O)COc1ccc(Cl)cc1C1c2cc(F)ccc2CCN1C(=O)OCc1ccccc1` (racemic) [Example 365], the IC50 amounted to 37.8 nM.
The same measure, in the same setting: the value for `O=C(O)COc1ccccc1C1c2ccccc2CCN1C(=O)OCc1ccccc1` (racemic) [Example 366] was 41.5 nM.
On the same count and under the same terms, the value for `Cc1cn(CCC(=O)N2CCc3ccccc3C2c2cc(Cl)ccc2OCC(=O)O)c2ccc(F)cc12` (racemic) [Example 368] was 20.7 nM.
Same read-out and setting: the value for `O=C(O)COc1ccc(Cl)cc1C1c2ccccc2CCN1C(=O)CCn1ccc2cccnc21` (racemic) [Example 369] was 195 nM; that for `O=C(O)COc1ccc(Cl)cc1C1c2ccccc2CCN1C(=O)CCn1ccc2ccc(C(F)(F)F)cc21` (racemic) [Example 370] was 80.6 nM; that for `N#Cc1ccc2c(ccn2CCC(=O)N2CCc3ccccc3C2c2cc(Cl)ccc2OCC(=O)O)c1` (racemic) [Example 371] was 53.1 nM.
As to `O=C(O)COc1ccc(Cl)cc1C1c2ccccc2CCN1C(=O)CCn1ccc2ccncc21` (racemic) [Example 372], the IC50 was determined as 596 nM.
Still for that read-out and setting: as for `COc1cc2c(ccn2CCC(=O)N2CCc3ccccc3C2c2cc(Cl)ccc2OCC(=O)O)cn1` (racemic) [Example 373], the figure is 433 nM.
Still for that read-out and setting: the value for `COc1ccc2ccn(CCC(=O)N3CCc4ccccc4C3c3cc(Cl)ccc3OCC(=O)O)c2n1` (racemic) [Example 374] was 12.3 nM; that for `COc1cc2c(ccn2CCC(=O)N2CCc3ccccc3C2c2cc(Cl)ccc2OCC(=O)O)cc1Cl` (racemic) [Example 375] was 81.8 nM.
`COc1cc(OC)c2ccn(CCC(=O)N3CCc4ccccc4C3c3cc(Cl)ccc3OCC(=O)O)c2n1` (racemic) [Example 376] had an IC50 of 32.5 nM. This IC50 lies about 2.5-fold lower than the previous one.
The same measure, in the same setting: the value for `COc1cc(OC)c2ccn(CCC(=O)N3CCc4ccccc4C3c3cc(Cl)ccc3OCC(=O)O)c2c1` (racemic) [Example 377] was 9.71 nM.
The same measure, in the same setting: the value for `O=C(O)COc1ccc(Cl)cc1C1c2ccccc2CCN1C(=O)CCn1ccc2ccccc21` (racemic) [Example 378] was 11.6 nM; that for `O=C(O)COc1ccc(Cl)cc1C1c2ccccc2CCN1C(=O)CCn1ccc2cc(F)ccc21` (racemic) [Example 379] was 16.8 nM; that for `O=C(O)COc1ccc(Cl)cc1C1c2ccccc2CCN1C(=O)CCn1ccc2cccc(Cl)c21` (racemic) [Example 380] was 24.3 nM.
Still for that read-out and setting: the value for `O=C(O)COc1ccc(Cl)cc1C1c2ccccc2CCN1C(=O)CCn1ccc2ncccc21` (racemic) [Example 381] was 31.6 nM; that for `COc1cccc2c1ccn2CCC(=O)N1CCc2ccccc2C1c1cc(Cl)ccc1OCC(=O)O` (racemic) [Example 382] was 20.7 nM.
For the molecule `O=C(O)COc1ccc(Cl)cc1C1c2ccccc2CCN1C(=O)CCn1nc(Cl)c2ccccc21` (racemic) [Example 383], the half-inhibitory concentration (IC50) turned out to be 8.5 nM.
`Cc1ccc2ccn(CCC(=O)N3CCc4ccccc4C3c3cc(Cl)ccc3OCC(=O)O)c2c1` (racemic) [Example 384] displayed a half-inhibitory concentration (IC50) of 14.8 nM.
The same measure, in the same setting: as for `O=C(O)COc1ccc(Cl)cc1C1c2ccccc2CCN1C(=O)CCn1ccc2cc(Cl)ccc21` (racemic) [Example 385], the figure is 51.2 nM; as for `O=C(O)COc1ccc(Cl)cc1C1c2ccccc2CCN1C(=O)CCn1ccc2ccc(Cl)cc21` (racemic) [Example 386], 11.6 nM.
Molecule `O=C(O)COc1ccc(Cl)cc1C1c2ccccc2CCN1C(=O)CCn1ccc2c(F)cccc21` (racemic) [Example 387] had an IC50 of 36.7 nM.
The molecule `O=C(O)COc1ccc(Cl)cc1C1c2ccccc2CCN1C(=O)CCn1ccc2ccc(F)cc21` (racemic) [Example 388] displayed an IC50 of 25.7 nM.
Same read-out and setting: as for `Cc1c(C)n(CCC(=O)N2CCc3ccccc3C2c2cc(Cl)ccc2OCC(=O)O)c2ccccc12` (racemic) [Example 389], the figure is 70.4 nM; as for `COc1ccc2ccn(CCC(=O)N3CCc4ccccc4C3c3cc(Cl)ccc3OCC(=O)O)c2c1` (racemic) [Example 390], 7.52 nM; as for `O=C(O)COc1ccc(Cl)cc1C1c2ccccc2CCN1C(=O)CCn1ccc2ncc(Cl)nc21` (racemic) [Example 404], 42.6 nM.
Still for that read-out and setting: the value for `O=C(O)COc1ccc(Cl)cc1C1c2ccccc2CCN1C(=O)CCn1c(C(F)(F)F)cc2ccccc21` (racemic) [Example 405] was 451 nM; that for `COc1ccccc1OCC(=O)N1CCc2ccccc2C1c1cc(Cl)ccc1OCC(=O)O` (racemic) [Example 406] was 26.8 nM; that for `O=C(O)COc1ccc(Cl)cc1C1c2ccccc2CCN1C(=O)COc1ccc(F)cc1` (racemic) [Example 407] was 34.9 nM.
In the case of `Cc1cccc(CCC(=O)N2CCc3ccccc3C2c2cc(Cl)ccc2OCC(=O)O)n1` (racemic) [Example 408], the IC50 turned out to be 177 nM.
Still for that read-out and setting: the value for `O=C(O)COc1ccc(Cl)cc1C1c2ccccc2CCN1C(=O)COc1ccccc1` (racemic) [Example 409] was 74 nM; that for `O=C(O)COc1ccc(Cl)cc1C1c2ccccc2CCN1C(=O)COc1ccccc1F` (racemic) [Example 410] was 70.7 nM.
Still for that read-out and setting: the value for `O=C(O)COc1ccc(Cl)cc1C1c2ccccc2CCN1C(=O)COc1cccc2cccnc12` (racemic) [Example 411] was 25.7 nM; that for `O=C(O)COc1ccc(Cl)cc1C1c2ccccc2CCN1C(=O)COc1ccc(Cl)cc1` (racemic) [Example 412] was 40.2 nM.
Still for that read-out and setting: as for `O=C(O)COc1ccc(Cl)cc1C1c2ccccc2CCN1C(=O)COc1cccc(Cl)c1` (racemic) [Example 413], the figure is 70.5 nM.
For the molecule `Cc1ccc(OCC(=O)N2CCc3ccccc3C2c2cc(Cl)ccc2OCC(=O)O)cc1` (racemic) [Example 414], the IC50 was found to be 126 nM.
For the molecule `COc1ccc(OCC(=O)N2CCc3ccccc3C2c2cc(Cl)ccc2OCC(=O)O)cc1` (racemic) [Example 415], the IC50 amounted to 210 nM.
As for `O=C(O)COc1ccc(Cl)cc1C1c2ccccc2CCN1C(=O)COc1cccnc1` (racemic) [Example 416], the IC50 was 215 nM.
In turn, `COc1ccc([C@@H]2C[C@H]2C(=O)N2CCc3ccccc3C2c2cc(Cl)ccc2OCC(=O)O)cc1` (mixture of isomers) [Example 417] had a half-inhibitory concentration (IC50) of 187 nM. This IC50 and that of the molecule before are within 1.5-fold of each other.
The molecule `O=C(O)COc1ccc(Cl)cc1C1c2ccccc2CCN1C(=O)[C@@H]1C[C@H]1c1ccc(F)cc1` (mixture of isomers) [Example 418] had an IC50 of 16.3 nM. This IC50 is about 11-fold lower than that of the molecule before.
In turn, `O=C(O)COc1ccc(Cl)cc1C1c2ccccc2CCN1C(=O)[C@@H]1C[C@H]1c1ccc(C(F)(F)F)cc1` (mixture of isomers) [Example 419] had an IC50 of 958 nM.

The assay is the same for the next values; noted with them: antagonistic activity; 3H-PGD2 displacement on HEK293-hCRTH2 membrane fragments.
In turn, `N#Cc1cccc(COC(=O)N2CCc3ccccc3C2c2cc(Cl)ccc2OCC(=O)O)c1` (racemic) [Example 257] returned an IC50 of 5.72 nM. In other words, the single-digit nanomolar range.
The same measure, in the same setting: as for `O=C(O)COc1ccc(Cl)cc1C1c2ccccc2CCN1C(=O)OCc1cc(F)ccc1F` (racemic) [Example 258], the figure is 7.54 nM; as for `O=C(O)COc1ccc(Cl)cc1C1c2ccccc2CCN1C(=O)OCc1cc(Cl)ccc1F` (racemic) [Example 259], 5.29 nM; as for `O=C(O)COc1ccc(Cl)cc1C1c2ccccc2CCN1C(=O)OCc1cc(F)ccc1Cl` (racemic) [Example 260], 15.1 nM.
`O=C(O)COc1ccc(Cl)cc1C1c2ccccc2CCN1C(=O)OCC1CCCCC1` (racemic) [Example 262] returned an IC50 of 9.43 nM.
For `Cn1ccc(COC(=O)N2CCc3ccccc3C2c2cc(Cl)ccc2OCC(=O)O)n1` (racemic) [Example 263], the IC50 was found to be 7.91 nM.
Same read-out and setting: the value for `O=C(O)COc1ccc(Cl)cc1C1c2ccccc2CCN1C(=O)OCC1CCCC1` (racemic) [Example 264] was 13.1 nM.
Same read-out and setting: as for `CC(C)COC(=O)N1CCc2ccccc2C1c1cc(Cl)ccc1OCC(=O)O` (racemic) [Example 265], the figure is 37.6 nM; as for `CCCCOC(=O)N1CCc2ccccc2C1c1cc(Cl)ccc1OCC(=O)O` (racemic) [Example 266], 24.5 nM.
On the same count and under the same terms, as for `COCCOC(=O)N1CCc2ccccc2C1c1cc(Cl)ccc1OCC(=O)O` (racemic) [Example 267], the figure is 21.2 nM.
In turn, `O=C(O)COc1ccc(Cl)cc1C1c2ccccc2CCN1C(=O)OCC1CC1` (racemic) [Example 268] returned an IC50 of 27.7 nM.
Same read-out and setting: as for `Cc1cc(C)n(COC(=O)N2CCc3ccccc3C2c2cc(Cl)ccc2OCC(=O)O)n1` (racemic) [Example 269], the figure is 4.95 nM; as for `Cc1cc(COC(=O)N2CCc3ccccc3C2c2cc(Cl)ccc2OCC(=O)O)no1` (racemic) [Example 270], 8.31 nM.
The same measure, in the same setting: as for `Cc1cc(COC(=O)N2CCc3ccccc3C2c2cc(Cl)ccc2OCC(=O)O)nn1C` (racemic) [Example 271], the figure is 12 nM; as for `O=C(O)COc1ccc(Cl)cc1C1c2ccccc2CCN1C(=O)OCc1ccc(Cl)cc1` (racemic) [Example 272], 17.1 nM.
